Laboratory results taken from EP3037106A1, “TXA2 inhibitor as stimulator or inducer of MHC Class I cross-presentation” (INSTITUT PASTEUR, priority 2014, dated 2016).
“Also recorded” adds a separate entry of the source.

Assays:
[1] = test system: BV2 macrophages-like cells; assay: FRET assay for antigen cytosolic transfer (CCF4-AM/β-lactamase) in BV2 macrophage like cells; format: cell-based, Murine; details: indomethacin 1mM 15 minutes; for indomethacin induced transfer of β-lactamase adsorbed to beads or expressed by E. coli: increasing amount of beads adsorbed or E. coli expressed β-lactamase at 37°C for 90 minutes; for indomethacin induced cytosolic transfer as a function of external β-lactamase concentration: increasing amount of β-lactamase at 37°C for 90 minutes
Procedure: Cell lines - Murine Raw and BV2 macrophages like cells were cultured in RPMI-1640 with GLUTAMAX (GIBCO) containing 10% v/v fetal calf serum (GIBCO) and 50 µg/ml penicillin/streptomycin (GIBCO). B3Z were cultured in the same medium but supplemented with 1mg/ml G418 (SIGMA) and 0.4 mg/ml hygromycin B (SIGMA). JAWS-II cells were cultured in Iscove's Modified Dulbecco's Media (IMDM) with L-Glutamine and 25mM HEPES containing 10% v/v fetal calf serum (GIBCO), 50 µg/ml penicillin/streptomycin (GIBCO) and 5ng/ml GM-CSF. All cell lines were maintained at 37°C and 5% CO2.
Preparation of beads and bacteria - E. coli DH5α were used expressing β-lactamase from a pBAD18 plasmid. After PBS washing, bacteria were re-suspended in EM buffer and the MOI was calibrated by measuring the absorbance of the overnight culture at OD 600nm. 3µm polystyrene beads (TEBU-BIO) were washed once before adsorption with β-lactamase at 4°C on a rotating wheel overnight. After PBS washing, beads were re-suspended in PBS buffer.
(§1) FRET assay for antigen cytosolic transfer - 30,000 to 50,000 cells were seeded on 96 well plates and loaded in a mix containing 3.3µM CCF4-AM (INVITROGEN), 1mM probenecid (SIGMA) and 1.5µl solution B (INVITROGEN) in EM buffer (120mM NaCl, 7mM KCI, 1.8mM CaCl2, 0.8mM MgCl2, 5mM glucose and 25mM HEPES at pH 7.3) in a final volume of 30 µl at 37°C. Following 1 mg/ml β-lactamase incubation in EM buffer, cells were washed with 1mM PBS/probenecid and imaged in EM buffer containing 1mM probenecid.
(§2) Fluorescence microscopy and image analysis - All acquisitions were performed on a NIKON TI WIDEFIELD microscope with a 20X N-Plan Objective. Experiments in triplicates were repeated at least 3 times independently for each condition using 25 pictures per replicate randomly and automatically. Image analysis was performed using custom-designed algorithms as described in Ray et al. 2010 (Cell Microbiol. 12(4): 545-556) and Simeone et al. 2012 (PLoS Pathog. 8(2): e1002507). Briefly, the 450 and 535 nm emission signals were scored automatically for each individual cells on a large set of images using METAMORPH. The quantitative parameters were then exported as an EXCEL file in which the ratio between the intensity of the 450 and 535 nm emission signals were presented as an average of the ratio in the whole cell population. After algorithm processing, mean ratios 450/535 nm from different replicates were obtained and pooled together as an average and the status of cytosolic transfer was assessed. Error bars represent standard deviation.

HeLa cells = assay: FRET assay for antigen cytosolic transfer (CCF4-AM/β-lactamase) in HeLa cells; format: cell-based; details: indomethacin 1mM 15 minutes at 37°C, 1 mg/ml β-lactamase 90 minutes
[2] = test system: bone marrow derived dendritic cells (BMDCs); assay: B3Z cross-priming experiments (cross-presentation of ovalbumin); format: cell-based, C57/black-6 mice; details: 15 minutes indomethacin 1mM or lactacystine 3µM, serial dilutions of ovalbumin 4 hours, B3Z hybridoma cells 1:1 overnight
Procedure: B3Z cross-priming experiments - 50,000 BMDCs per well were seeded on poly-L-lysine coated 96 well plates. After treatment with DMSO, 3µM lactacystine, or 1mM indomethacin for 15 minutes in RPMI-1640 complemented with 10% v/v fetal calf serum and 50 µg/ml penicillin/streptomycin at 37°C, cells were incubated with serial dilutions (from 3 to 0.0275 mg/ml) of ovalbumin (EUROMEDEX) for 4 hours. Triplicates were performed for each concentration and serial dilutions of the SIINFEKL 257-264 peptide (POLYPEPTIDE GROUP) were used as positive control (dilutions 1/10 starting from 0.1µg/ml). After 3 washes, cells are incubated overnight with 50,000 B3Z hybridoma cells at 37°C, washed once and subjected to the chlorophenol red-D-galactopyranoside (CPRG) detergent mix containing 100mM β-mercaptoethanol, 100mM MgCl2, 0.125% NP40 and 0.15mM CPRG at 37°C for 4 hours. OD 492 as indicator of β-galactosidase (lacZ) activity produced under the control of the interleukin 2 promoter was subsequently measured by plate reader. Data were obtained from 3 independent experiments and plotted by GRAPHPAD PRISM (error bars: standard deviation).

[3] = test system: bone marrow derived macrophages (BMMs); assay: FRET assay for antigen cytosolic transfer (CCF4-AM/β-lactamase) in bone marrow derived macrophages; format: cell-based, C57/black-6 mice; details: for transfer of β-lactamase to the cytosol (450/535 nm ratio, CCF4 cleavage): compound 15 minutes at 37°C (AACOCF3 0.25mM, baïcalein 1mM, indomethacin 1mM, sulindac sulphide 1mM, ICI192605 1mM, arachidonic acid 80µM), then 1 mg/ml β-lactamase 90 minutes at 37°C; for effect on indomethacin induced transfer of β-lactamase to the cytosol: indomethacin 1mM 15 minutes, then β-lactamase with wortmannin 0.5µM, radicicol 25µM or Pyr41 10µM for 90 minutes at 37°C; for reversal of inhibitor-induced antigen transfer to the cytosol (complementation): after indomethacin 1mM or AACOCF3 0.25mM, diMePGE2 or U46619 10µM added with β-lactamase for 90 minutes at 37°C
Procedure: Primary Cells and Mice - Bone marrow derived dendritic cells and macrophages were isolated by flushing femur and tibia from 6 to 9 weeks old C57/black-6 mice with ROSWELL PARK MEMORIAL INSTITUTE-1640 (RPMI-1640) supplemented with GLUTAMAX using 5 ml syringes (BD PLASTIPAK) and 0.5 x 16 mm needles 25G 5/8 (BD MicroLance). After centrifugation at 1000 rpm for 4 minutes, cells were resuspended in 1.66% NH4Cl, and put at 4°C for 10 minutes. After centrifugation at 1,000 rpm for 4 minutes, cells were quantified and incubated at 37°C/5% CO2 for 7 to 10 days in RPMI-1640 with GLUTAMAX containing 10% v/v fetal calf serum (GIBCO) and 50µg/ml penicillin/streptomycin (GIBCO). Granulocytes and macrophages-colony stimulating factor (GM-CSF, MILTENIY BIOTEC) and macrophages-colony stimulating factor (M-CSF, PREPROTECH) were added at day 0 at a concentration of 50 ng/ml in order to allow dendritic cells or macrophages differentiation. Dendritic cells were replated every 3 days adding each time fresh GM-CSF. Macrophages were supplemented with fresh M-CSF at day 4 and replated at day 7 with M-CSF at 25ng/ml. Plasmacytoïd and conventional dendritic cells were isolated from C57/black-6 mice spleen using a plasmacytoïd dendritic cell isolation kit (MILTENYI BIOTEC) and a CD8+ dendritic cell isolation kit (MILTENYI BIOTEC). BMDCs, pDCs and cDCs were adhered on 0.01% poly-lysine coated plates in phosphate buffer saline (PBS).
as §1, §2

[4] = test system: bone marrow derived macrophages (BMMs); assay: Cytosolic delivery of fluorescent antigens (Cy3-dextran, Cy3-β-lactamase, Cy3) by widefield microscopy; format: cell-based, C57/black-6 mice; details: indomethacin 1mM 15 minutes; for transfer of fluorescent dextran to the cytosol: 10-kDa Cy3-dextran 1 mg/ml for 90 minutes; for transfer of Cy3-labelled β-lactamase to the cytosol: Cy3-Bla 0.2 mg/ml for 90 minutes
[5] = at 37°C; cited from earlier work

COc1ccc2c(c1)c(CC(=O)O)c(C)n2C(=O)c1ccc(Cl)cc1 [indomethacin, 1-(4-chlorobenzoyl)-5-methoxy-2-methyl-1H-indole-3-acetic acid]
indomethacin induced transfer of β-lactamase adsorbed to beads or expressed by E. coli [1]: same dose-dependency | indomethacin induced transfer of β-lactamase adsorbed to beads or expressed by E. coli ([1]; listed as Indomethacin): is also able to trigger the transfer of β-lactamase when adsorbed to beads or expressed by E. coli in BV2 macrophages-like cells in a dose dependent manner | indomethacin induced cytosolic transfer as a function of external β-lactamase concentration [1]: dose-dependent on the external concentration of β-lactamase | indomethacin induced cytosolic transfer as a function of external β-lactamase concentration ([1]; listed as Indomethacin): depends on the external concentration of β-lactamase | transfer of β-lactamase to the cytosol in HeLa cells (HeLa cells): no cytosolic β-lactamase delivery | transfer of β-lactamase to the cytosol in HeLa cells (HeLa cells; listed as Indomethacin): does not trigger the transfer of β-lactamase to the cytosol | cross-presentation of ovalbumin (B3Z lacZ activity, CPRG) [2]: displayed enhanced capacities for cross-priming compared to the DMSO control | cross-presentation of ovalbumin (B3Z lacZ activity, CPRG) ([2]; listed as Indomethacin): promotes cross-presentation of ovalbumin | transfer of β-lactamase to the cytosol (450/535 nm ratio, CCF4 cleavage) [3]: led to a robust cytosolic transfer of beta-lactamase | transfer of fluorescent dextran to the cytosol [4]: the staining switched to cytosolic staining | transfer of fluorescent dextran to the cytosol ([4]; listed as Indomethacin): triggers the transfer of Cy3 labeled β-lactamase, dextran and Cy3 to the cytosol | transfer of Cy3 alone to the cytosol ([4]; Cy3 0.2 mg/ml for 90 minutes, listed as Indomethacin): triggers the transfer of Cy3 labeled β-lactamase, dextran and Cy3 to the cytosol | transfer of Cy3-labelled β-lactamase to the cytosol [4]: induced not only the transfer of Cy3-labelled β-lactamase | transfer of Cy3-labelled β-lactamase to the cytosol ([4]; listed as Indomethacin): triggers the transfer of Cy3 labeled β-lactamase, dextran and Cy3 to the cytosol

CCOC(=O)c1ccc(N2NC(=O)/C(=C/c3ccc([N+](=O)[O-])o3)C2=O)cc1 [Pyr41]
effect on indomethacin induced transfer of β-lactamase to the cytosol [3]: decreased cytosolic antigen transfer induced by indomethacin; also recorded: restrained

CCCCC[C@H](O)/C=C/[C@@H]1[C@@H](C/C=C\CCCC(=O)O)[C@H]2CO[C@@H]1C2 [U46619]
reversal of inhibitor-induced antigen transfer to the cytosol (complementation) [3]: reduced the inhibitor-induced antigen transfer to the cytosol

O=C(O)CC/C=C\CC1COC(c2ccccc2Cl)OC1c1ccccc1O (stereo not drawn) [ICI192605, 4-(Z)-6-(2-o-Chlorophenyl-4-o-hydroxyphenyl-1,3-dioxan-cis-5-yl)hexenoic acid]
transfer of β-lactamase to the cytosol (450/535 nm ratio, CCF4 cleavage) [3]: led to a robust antigen transfer

CCCCC/C=C\C/C=C\C/C=C\C/C=C\CCCC(=O)C(F)(F)F [AACOCF3, 1,1,1-trifluoro-6Z,9Z,12Z,15Z-heneicosatetraen-2-one]
transfer of β-lactamase to the cytosol (450/535 nm ratio, CCF4 cleavage) [3]: dramatically and robustly boosted transfer of the model antigen β-lactamase to the cytosol

C/C=C/[C@H]1O[C@@](O)([C@@H](C)[C@H](O)[C@H](C)[C@H]2OC(=O)/C(OC)=C/C(C)=C/[C@@H](C)[C@@H](O)[C@@H](C)[C@@H](O)[C@H](C)C/C(C)=C/C=C/[C@@H]2OC)C[C@@H](O[C@H]2C[C@@H](O)[C@H](OC(N)=O)[C@@H](C)O2)[C@@H]1C [conB, Concanamycin B]
cytosolic transfer of β-lactamase on increased endosomal antigen stability ([3]; concanamycin B 25nM or protease inhibitors 1X with β-lactamase for 90 minutes at 37°C): neither conB nor PI incubation led to any cytosolic transfer of β-lactamase

C[C@@H]1C[C@H]2O[C@@H]2/C=C\C=C\C(=O)Cc2c(Cl)c(O)cc(O)c2C(=O)O1 [radicicol]
effect on indomethacin induced transfer of β-lactamase to the cytosol [3]: restrained

CCCCC[C@H](O)/C=C/[C@H]1[C@H](O)CC(=O)[C@@H]1C/C=C\CCCC(=O)O [PGE2, prostaglandin E2]
half-life [5]: less than one minute

CCCCC(C)(C)[C@H](O)/C=C/[C@H]1[C@H](O)CC(=O)[C@@H]1C/C=C\CCCC(=O)O [dimethylPGE2, dimethyl-prostaglandin E2]
reversal of inhibitor-induced antigen transfer to the cytosol (complementation) [3]: did not lead to a reversal of the effect of antigen transfer to the cytoplasm

CC(=O)N[C@@H](CSC(=O)[C@]1([C@@H](O)C(C)C)NC(=O)[C@H](C)[C@@H]1O)C(=O)O [lactacystin]
cross-presentation of ovalbumin (B3Z lacZ activity, CPRG) [2]: do not cross-present ovalbumin

CCCCC/C=C\C/C=C\C/C=C\C/C=C\CCCC(=O)O [arachidonic acid]
transfer of β-lactamase to the cytosol (450/535 nm ratio, CCF4 cleavage) [3]: triggered cytosolic access of our model antigen β-lactamase

CCCCC[C@H](O)/C=C/[C@H]1O[C@H]2C[C@H](O2)[C@@H]1C/C=C\CCCC(=O)O [TXA2, Thromboxane A2]
half-life [5]: less than one minute
